Assay results published in PubChem BioAssay AID602470 (Southern Research Specialized Biocontainment Screening …, 2012).
Active and inactive are the calls of the source. No rule for the calls is given here.

Experiments:
[1] = anti-RSV activity in infected cells – counter-screen for VEEV inhibitor project, dose response (AID 602470); conditions: RSV-infected cells, antiviral CPE inhibition; at 12.5 µM (top of the series)
[2] = test system: RSV-infected cells, antiviral CPE inhibition; assay: as above

| SMILES | inhibition [1] | IC50 [2] |
| --- | --- | --- |
| CCN1CCN(Cc2nc3ccc([N+](=O)[O-])cc3c(=O)n2-c2ccccc2F)CC1 | 38.2% (inactive) | – |
| CN1CCN(Cc2nc3ccc([N+](=O)[O-])cc3c(=O)n2-c2ccccc2F)CC1 | 31.6% (inactive) | – |
| CN(C(=O)Cc1cccs1)c1nc2c(s1)CCCC2 | – | 680 nM |
